# Test results reported in ChEMBL document CHEMBL5137080, “Discovery of Novel 7-Hydroxy-5-oxo-4,5-dihydrothieno[3,2-b]pyridine-6-carboxamide Derivatives with Potent and Selective Antifungal Activity against Cryptococcus Species” (J Med Chem, 2022).
# Columns and labels:
# Cryptococcus neoformans [1] = assay: Antifungal activity against Cryptococcus neoformans clinical isolate BJ3 assessed as fungal growth inhibition incubated for 72 hrs by broth microdilution method; assay type: functional
# [2] = Hemolytic activity in rabbit RBC at 16 ug/ml incubated for 1 hr by spectrophotometry; assay type: toxicity, cell-based, Oryctolagus cuniculus, Erythrocyte; details: red blood cells, at 16 µg/mL, read-out: Activity
# Cryptococcus neoformans [3] = assay: Antifungal activity against Cryptococcus neoformans H99 infected in Wax moth larvae assessed as median survival time at 10 mg/kg measured after 9 days by Kaplan-Meier method; assay type: functional; details: time 9 day
# Cryptococcus neoformans [4] = assay: Antifungal activity against Cryptococcus neoformans clinical isolate HN1 assessed as fungal growth inhibition incubated for 72 hrs by broth microdilution method; assay type: functional
# [5] = system: Cryptococcus gattii species complex; assay: Antifungal activity against Cryptococcus gattii clinical isolate SCZ20024 assessed as fungal growth inhibition incubated for 72 hrs by broth microdilution method; assay type: functional
# [6] = Cytotoxicity against human HUVEC cells assessed as inhibition on cell growth incubated for 24 hrs by CCK-8 assay; assay type: toxicity, cell-based
# Cryptococcus neoformans [7] = assay: Antifungal activity against Cryptococcus neoformans clinical isolate HN17 assessed as fungal growth inhibition incubated for 72 hrs by broth microdilution method; assay type: functional
# [8] = system: Cryptococcus deuterogattii; assay: Antifungal activity against Cryptococcus gattii WM178 assessed as fungal growth inhibition incubated for 72 hrs by broth microdilution method; assay type: functional, Cryptococcus gattii species complex
# Cryptococcus neoformans [9] = assay: Antifungal activity against Cryptococcus neoformans clinical isolate 444 assessed as fungal growth inhibition incubated for 72 hrs in presence of P163-0892 by broth microdilution method; assay type: functional
# Cryptococcus neoformans [10] = assay: Antifungal activity against Cryptococcus neoformans clinical isolate HN15 assessed as fungal growth inhibition incubated for 72 hrs in presence of P163-0892 by broth microdilution method; assay type: functional
# Cryptococcus neoformans [11] = assay: Antifungal activity against Cryptococcus neoformans clinical isolate HN20 assessed as fungal growth inhibition incubated for 72 hrs by broth microdilution method; assay type: functional
# Cryptococcus neoformans [12] = assay: Antifungal activity against Cryptococcus neoformans clinical isolate 444 assessed as fungal growth inhibition incubated for 72 hrs by broth microdilution method; assay type: functional
# Cryptococcus neoformans [13] = assay: Antifungal activity against Cryptococcus neoformans clinical isolate 445 assessed as fungal growth inhibition incubated for 72 hrs in presence of P163-0892 by broth microdilution method; assay type: functional
# [14] = system: Cryptococcus gattii species complex; assay: Antifungal activity against Cryptococcus gattii clinical isolate SCZ20031 assessed as fungal growth inhibition incubated for 72 hrs by broth microdilution method; assay type: functional
# [15] = system: Cryptococcus gattii species complex; assay: Antifungal activity against Cryptococcus gattii E566 assessed as fungal growth inhibition incubated for 72 hrs by broth microdilution method; assay type: functional
# Pichia kudriavzevii = assay: Antifungal activity against Candida krusei ATCC2340 assessed as fungal growth inhibition incubated for 48 hrs by broth microdilution method; assay type: functional
# Cryptococcus neoformans [16] = assay: Antifungal activity against Cryptococcus neoformans H99 assessed as fungal growth inhibition incubated for 72 hrs by broth microdilution method; assay type: functional
# [17] = Cytotoxicity against human Caco-2 cells assessed as cell viability at 256 ug/ml incubated for 24 hrs by CCK-8 assay; assay type: toxicity, cell-based; details: at 256 µg/mL, read-out: Activity
# Cryptococcus neoformans [18] = assay: Antifungal activity against Cryptococcus neoformans clinical isolate HN2-40 assessed as fungal growth inhibition incubated for 72 hrs by broth microdilution method; assay type: functional
# Aspergillus fumigatus = assay: Antifungal activity against Aspergillus fumigatus 7544 assessed as fungal growth inhibition incubated for 48 hrs by broth microdilution method; assay type: functional
# Candida tropicalis = assay: Antifungal activity against Candida tropicalis ATCC20026 assessed as fungal growth inhibition incubated for 48 hrs by broth microdilution method; assay type: functional
# Cryptococcus neoformans [19] = assay: Antifungal activity against Cryptococcus neoformans H99 infected in Wax moth larvae assessed as survival rate at 10 mg/kg measured after 9 days by Kaplan-Meier method; assay type: functional; details: H99, 216 h, time 9 day
# Cryptococcus neoformans [20] = assay: Antifungal activity against Cryptococcus neoformans clinical isolate 56992 assessed as fungal growth inhibition incubated for 72 hrs by broth microdilution method; assay type: functional
# Cryptococcus neoformans [21] = assay: Antifungal activity against Cryptococcus neoformans clinical isolate HN15 assessed as fungal growth inhibition incubated for 72 hrs by broth microdilution method; assay type: functional
# Cryptococcus gattii = assay: Antifungal activity against Cryptococcus gattii WM179 assessed as fungal growth inhibition incubated for 72 hrs by broth microdilution method; assay type: functional, Cryptococcus gattii species complex
# Cryptococcus neoformans [22] = assay: Antifungal activity against Cryptococcus neoformans clinical isolate HN2 assessed as fungal growth inhibition incubated for 72 hrs by broth microdilution method; assay type: functional
# Candida albicans = assay: Antifungal activity against Candida albicans SC5314 assessed as fungal growth inhibition incubated for 48 hrs by broth microdilution method; assay type: functional
# Nakaseomyces glabratus = assay: Antifungal activity against Candida glabrata ATCC1182 assessed as fungal growth inhibition incubated for 48 hrs by broth microdilution method; assay type: functional
# [23] = Hemolytic activity in rabbit RBC at 256 ug/ml incubated for 1 hr by spectrophotometry; assay type: toxicity, cell-based, Oryctolagus cuniculus, Erythrocyte; details: red blood cells, at 256 µg/mL, read-out: Activity
# Cryptococcus neoformans [24] = assay: Antifungal activity against Cryptococcus neoformans clinical isolate HN19 assessed as fungal growth inhibition incubated for 72 hrs by broth microdilution method; assay type: functional
# [25] = system: Cryptococcus deuterogattii; assay: Antifungal activity against Cryptococcus gattii WM178 infected in Wax moth larvae assessed as median survival time at 10 mg/kg measured after 9 days by Kaplan-Meier method; assay type: functional, Cryptococcus gattii species complex; details: time 9 day
# [Candida] auris = Antifungal activity against Candida auris CBS 12372 assessed as fungal growth inhibition incubated for 48 hrs by broth microdilution method; assay type: functional; details: Candidozyma auris
# Cryptococcus neoformans [26] = assay: Antifungal activity against Cryptococcus neoformans clinical isolate 443 assessed as fungal growth inhibition incubated for 72 hrs by broth microdilution method; assay type: functional
# Cryptococcus neoformans [27] = assay: Antifungal activity against Cryptococcus neoformans clinical isolate SH68 assessed as fungal growth inhibition incubated for 72 hrs by broth microdilution method; assay type: functional
# Cryptococcus neoformans [28] = assay: Antifungal activity against Cryptococcus neoformans clinical isolate 445 assessed as fungal growth inhibition incubated for 72 hrs by broth microdilution method; assay type: functional
# Cryptococcus neoformans [29] = assay: Antifungal activity against Cryptococcus neoformans H99 infected in Wax moth larvae assessed as reduction on fungal burden at 10 mg/kg measured after 9 days by 10 fold serial dilution method; assay type: functional; details: time 9 day
# [30] = system: Cryptococcus deuterogattii; assay: Antifungal activity against Cryptococcus gattii WM178 infected in Wax moth larvae assessed as survival rate at 10 mg/kg measured after 9 days by Kaplan-Meier method; assay type: functional, Cryptococcus gattii species complex; details: WM178, 216 h, time 9 day
# [31] = Cytotoxicity against human HUVEC cells assessed as cell viability at 256 ug/ml incubated for 24 hrs by CCK-8 assay; assay type: toxicity, cell-based; details: at 256 µg/mL, read-out: Activity
# Cryptococcus neoformans [32] = assay: Synergistic antifungal activity against Cryptococcus neoformans clinical isolate 443 assessed as fractional inhibitory concentration index incubated for 72 hrs in presence of Fluconazole by broth microdilution method; assay type: functional
# Cryptococcus neoformans [33] = assay: Antifungal activity against Cryptococcus neoformans clinical isolate BJ3 assessed as fungal growth inhibition incubated for 72 hrs in presence of Fluconazole by broth microdilution method; assay type: functional
# [34] = MRT (0 to t) in Sprague-Dawley rat at 2 mg/kg,iv by LC-MS/MS analysis; assay type: ADME, organism-based; details: in vivo
# Cryptococcus neoformans [35] = assay: Synergistic antifungal activity against Cryptococcus neoformans clinical isolate 445 assessed as fractional inhibitory concentration index incubated for 72 hrs in presence of Fluconazole by broth microdilution method; assay type: functional
# Cryptococcus neoformans [36] = assay: Synergistic antifungal activity against Cryptococcus neoformans clinical isolate HN19 assessed as fractional inhibitory concentration index incubated for 72 hrs in presence of Fluconazole by broth microdilution method; assay type: functional
# Cryptococcus neoformans [37] = assay: Antifungal activity against Cryptococcus neoformans H99 infected in Wax moth larvae assessed as survival rate at 10 mg/kg measured after 9 days in presence of Fluconazole by Kaplan-Meier method; assay type: functional; details: H99, 216 h, time 9 day
compound,measurement,setting,value
OC(Cn1cncn1)(Cn1cncn1)c1ccc(F)cc1F [FLUCONAZOLE],MIC,Cryptococcus neoformans [1],2 µg/mL
same,"hemolysis at 1 h, 16 ug/ml",[2],2.65%
same,MST,Cryptococcus neoformans [3],2.5 days
same,MIC,Cryptococcus neoformans [4],2 µg/mL
same,MIC,[5],4 µg/mL
same,IC50 at 24 h,[6],> 64 µg/mL
same,MIC,Cryptococcus neoformans [7],4 µg/mL
same,MIC,[8],4 µg/mL
same,MIC,Cryptococcus neoformans [9],0.5 µg/mL
same,MIC,Cryptococcus neoformans [10],1 µg/mL
same,MIC,Cryptococcus neoformans [11],0.5 µg/mL
same,MIC,Cryptococcus neoformans [12],4 µg/mL
same,MIC,Cryptococcus neoformans [13],2 µg/mL
same,MIC,[14],8 µg/mL
same,MIC,[15],4 µg/mL
same,MIC,Pichia kudriavzevii,8 µg/mL
same,MIC,Cryptococcus neoformans [16],16 µg/mL
same,"viability at 24 h, 256 ug/ml",[17],95.3%
same,MIC,Cryptococcus neoformans [18],1 µg/mL
same,MIC,Aspergillus fumigatus,> 64 µg/mL
same,MIC,Candida tropicalis,2 µg/mL
same,survival at 10 mg/kg,Cryptococcus neoformans [19],35%
same,MIC,Cryptococcus neoformans [20],2 µg/mL
same,MIC,Cryptococcus neoformans [21],4 µg/mL
same,MIC,Cryptococcus gattii,4 µg/mL
same,MIC,Cryptococcus neoformans [22],2 µg/mL
same,MIC,Candida albicans,0.5 µg/mL
same,MIC,Nakaseomyces glabratus,> 64 µg/mL
same,"hemolysis at 1 h, 256 ug/ml",[23],2.67%
same,MIC,Cryptococcus neoformans [24],4 µg/mL
same,MST,[25],3 days
same,MIC,[Candida] auris,1 µg/mL
same,MIC,Cryptococcus neoformans [26],8 µg/mL
same,MIC,Cryptococcus neoformans [27],8 µg/mL
same,MIC,Cryptococcus neoformans [28],8 µg/mL
same,Activity,Cryptococcus neoformans [29],5.3 log10CFU/g
same,survival at 10 mg/kg,[30],40%
same,"viability at 24 h, 256 ug/ml",[31],108%
CCCCNC(=O)c1c(O)c2sccc2n(Cc2ccccc2)c1=O,MIC,Cryptococcus neoformans [1],0.5 µg/mL
same,"hemolysis at 1 h, 16 ug/ml",[2],2.32%
same,MST,Cryptococcus neoformans [3],2.5 days
same,MIC,Cryptococcus neoformans [4],0.5 µg/mL
same,MIC,[5],1 µg/mL
same,IC50 at 24 h,[6],> 64 µg/mL
same,MIC,Cryptococcus neoformans [7],1 µg/mL
same,MIC,[8],0.5 µg/mL
same,fractional inhibitory concentration index (FICI),Cryptococcus neoformans [32],0.156
same,MIC,Cryptococcus neoformans [11],0.25 µg/mL
same,MIC,Cryptococcus neoformans [12],0.5 µg/mL
same,MIC,Cryptococcus neoformans [33],0.0313 µg/mL
same,MIC,[14],1 µg/mL
same,MIC,[15],0.5 µg/mL
same,MIC,Pichia kudriavzevii,> 64 µg/mL
same,MRT(t),[34],2.63 h
same,MIC,Cryptococcus neoformans [16],0.25 µg/mL
same,"viability at 24 h, 256 ug/ml",[17],104%
same,MIC,Cryptococcus neoformans [18],0.5 µg/mL
same,MIC,Aspergillus fumigatus,> 64 µg/mL
same,MIC,Candida tropicalis,> 64 µg/mL
same,survival at 10 mg/kg,Cryptococcus neoformans [19],30%
same,MIC,Cryptococcus neoformans [20],1 µg/mL
same,fractional inhibitory concentration index (FICI),Cryptococcus neoformans [35],0.375
same,MIC,Cryptococcus neoformans [21],1 µg/mL
same,MIC,Cryptococcus gattii,0.5 µg/mL
same,MIC,Cryptococcus neoformans [22],0.5 µg/mL
same,MIC,Candida albicans,> 64 µg/mL
same,MIC,Nakaseomyces glabratus,> 64 µg/mL
same,fractional inhibitory concentration index (FICI),Cryptococcus neoformans [36],0.281
same,"hemolysis at 1 h, 256 ug/ml",[23],2.47%
same,MIC,Cryptococcus neoformans [24],1 µg/mL
same,MST,[25],3 days
same,survival at 10 mg/kg,Cryptococcus neoformans [37],65%
same,MIC,[Candida] auris,> 64 µg/mL
same,MIC,Cryptococcus neoformans [26],1 µg/mL
same,MIC,Cryptococcus neoformans [27],0.5 µg/mL
same,MIC,Cryptococcus neoformans [28],2 µg/mL
same,Activity,Cryptococcus neoformans [29],5.7 log10CFU/g
same,survival at 10 mg/kg,[30],35%
same,"viability at 24 h, 256 ug/ml",[31],107%
